Patent US12275711B2, “Compounds having excited state intramolecular proton transfer (ESIPT) character for use in treating and/or preventing sunburn and/or preventing U.V. damage” (UNIVERSITY OF THE WITWATERSRAND, JOHANNESBURG, priority 2019, dated 2025)
Read-outs that look alike come from different tables or passages of the source.

Key:
[1] = UV absorbance, molar absorptivity coefficients (ε) of the synthesized compounds; format: physicochemical
Description: The synthesized compounds 4c, 5, 6, 9, 10, 13a, 13b, 14, 20, 21, and 23, were analysed for their UV absorbances and their molar absorptivity coefficients (e) were determined.

[2] = in L mol-1 cm-1, cited from earlier work

CCCCCCCCCCCCCCCc1cc(O)c2c(=O)c3c(O)cccc3oc2c1 [Compound 14, 1,8-Dihydroxy-3-pentadecyl-9H-xanthen-9-one]
ε value (molar absorptivity coefficient) ([1]; at 254 nm): 23800 L/mol/cm

CCCCC(CC)COC(=O)C=Cc1ccc(OC)cc1 (centres unmarked) [2-ethylhexyl 4-methoxycinnamate]
experimental molar absorption coefficient ([2]; at 356 nm): 39,470

CCCCCCCCCCCCCCCc1ccc(C(=O)c2ccccc2O)c(O)c1 [Compound 10, (2-hydroxy-4-pentadecylphenyl)(2-hydroxyphenyl)methanone]
experimental ε value (molar absorptivity coefficient) ([1]; at 282 nm): 31700 L/mol/cm

CCCCCCCCCCCCCCCc1ccc(C(=O)c2ccccc2)c(O)c1 [Compound 9, (2-Hydroxy-4-pentadecylphenyl)(phenyl)methanone]
experimental ε value (molar absorptivity coefficient) ([1]; at 279 nm): 47,909 L mol^−1 cm^−1

COc1ccc(C(=O)c2ccccc2)c(O)c1 [oxybenzone]
experimental molar absorption coefficient ([2]; at 287 nm): 15,150

COc1ccc(C(=O)CC(=O)c2ccc(C(C)(C)C)cc2)cc1 [avobenzone]
experimental molar absorption coefficient ([2]; at 310 nm): 31,670

CCCCCCCCCCCCCCCc1ccc(C(=O)/C=C/c2ccccc2)c(O)c1 [Compound 13a, (E)-1-(2-hydroxy-4-pentadecylphenyl)-3-phenylprop-2-en-1-one]
experimental ε value (molar absorptivity coefficient) ([1]; at 314 nm): 20,403 L mol^−1 cm^−1

CCCCCCCCCCCCCCCc1ccc(-c2nnc(-c3ccc(OC)c(OC)c3)o2)c(O)c1 [Compound 23, 2-[5-(3,4-Dimethoxyphenyl)-1,3,4-oxadiazol-2-yl]-5-pentadecylphenol]
experimental ε value (molar absorptivity coefficient) ([1]; at 293 nm): 3,373 L mol^−1 cm^−1 | experimental ε value (molar absorptivity coefficient) ([1]; at 326 nm): 6,367 L mol^−1 cm^−1

CCCCCCCCCCCCCCCc1cccc(O)c1C(=O)c1ccccc1O [Compound 4c, [2-(Hydroxy)-6-pentadecylphenyl](2-hydroxyphenyl)methanone]
experimental ε value (molar absorptivity coefficient) ([1]; at 261 nm): 36,366 L mol^−1 cm^−1 | experimental ε value (molar absorptivity coefficient) ([1]; at 335 nm): 10,538 L mol^−1 cm^−1

CCCCCCCCCCCCCCCc1cccc(O)c1C(=O)c1cc(OC)ccc1O [Compound 5, (2-Hydroxy-5-methoxyphenyl)(2-hydroxy-6-pentadecylphenyl)methanone]
ε value (molar absorptivity coefficient) ([1]; at 265 nm): 18,439 L mol^−1 cm^−1 | ε value (molar absorptivity coefficient) ([1]; at 374 nm): 8,785 L mol^−1 cm^−1

CCCCCCCCCCCCCCCc1cccc(O)c1C(=O)c1cc(OC)c(OC)cc1O [Compound 6, (2-Pentadecyl-6-hydroxyphenyl)(2-hydroxy-4,5-dimethoxyphenyl)methanone]
ε value (molar absorptivity coefficient) ([1]; at 287 nm): 34,096 L mol^−1 cm^−1 | ε value (molar absorptivity coefficient) ([1]; at 358 nm): 25,014 L mol^−1 cm^−1

CCCCCCCCCCCCCCCc1ccc2c(=O)c(O)c(-c3ccccc3)oc2c1 [Compound 13b, 3-Hydroxy-7-pentadecyl-2-phenyl-4H-chromen-4-one]
experimental ε value (molar absorptivity coefficient) ([1]; at 314 nm): 39900 L/mol/cm | experimental ε value (molar absorptivity coefficient) ([1]; at 345 nm): 45000 L/mol/cm

CCCCCCCCCCCCCCCc1ccc(-c2nc(-c3ccc(CCCCCCCCCCCCCCC)cc3O)nc(-c3ccc(CCCCCCCCCCCCCCC)cc3O)n2)c(O)c1 [Compound 21, 6,6′,6″-(1,3,5-Triazine-2,4,6-triyl)tris(3-pentadecylphenol)]
experimental ε value (molar absorptivity coefficient) ([1]; at 300 nm): 21,452 L mol^−1 cm^−1 | experimental ε value (molar absorptivity coefficient) ([1]; at 364 nm): 12500 L/mol/cm

CCCCCCCCCCCCCCCc1ccc(-c2nc(-c3ccccc3)nc(-c3ccccc3)n2)c(O)c1 [Compound 20, 2-(4,6-Diphenyl-1,3,5-triazin-2-yl)-5-pentadecylphenol]
ε value (molar absorptivity coefficient) ([1]; at 278 nm): 29,252 L mol^−1 cm^−1
